Test results reported in US8193221B2, “Insecticidal compounds” (Syngenta Crop Protection LLC, priority 2007, dated 2012).
Where two headings read alike, the source gives them in different places.

Columns and labels:
Format in all cases: in vivo
[1] = test system: Spodoptera littoralis; test: Spodoptera littoralis (Egyptian cotton leafworm) cotton leaf disc spray test; settings: for pest or weed control at 200 ppm: foliar, 72 h, read-out: control of Spodoptera littoralis; for damage to the test organisms: same protocol, 200 ppm
Source text: Spodoptera littoralis (Egyptian Cotton Leafworm):
Cotton leaf discs were placed on agar in a 24-well microtiter plate and sprayed with test solutions at an application rate of 200 ppm. After drying, the leaf discs were infested with 5 L1 larvae. The samples were checked for mortality, feeding behavior, and growth regulation 3 days after treatment (DAT).

[2] = test system: Diabrotica balteata; test: Diabrotica balteata (corn root worm) larval test on artificial diet; settings: same protocol, 200 ppm
Description: Diabrotica balteata (Corn Root Worm):
(§1) A 24-well microtiter plate (MTP) with artificial diet was treated with test solutions at an application rate of 200 ppm (concentration in well 18 ppm) by pipetting. After drying, the MTP's were infested with L2 larvae (6-10 per well). After an incubation period of 5 days, samples were checked for larval mortality and growth regulation.

[3] = test system: Heliothis virescens; test: Heliothis virescens (tobacco budworm) egg test on artificial diet; settings: same protocol, 200 ppm
Description: Heliothis virescens (Tobacco Budworm):
Eggs (0-24 h old) were placed in 24-well microtiter plate on artificial diet and treated with test solutions at an application rate of 200 ppm (concentration in well 18 ppm) by pipetting. After an incubation period of 4 days, samples were checked for egg mortality, larval mortality, and growth regulation.

[4] = test system: Tetranychus urticae; test: Tetranychus urticae (two-spotted spider mite) bean leaf disc spray test; settings: same protocol, 200 ppm
Source text: Tetranychus urticae (Two-Spotted Spider Mite):
Bean leaf discs on agar in 24-well microtiter plates were sprayed with test solutions at an application rate of 200 ppm. After drying, the leaf discs are infested with mite populations of mixed ages. 8 days later, discs are checked for egg mortality, larval mortality, and adult mortality.

[5] = test system: Thrips tabaci; test: Thrips tabaci (onion thrips) sunflower leaf disc spray test; settings: same protocol, 200 ppm
Description: Thrips tabaci (Onion Trips):
Sunflower leaf discs were placed on agar in a 24-well microtiter plate and sprayed with test solutions at an application rate of 200 ppm. After drying, the leaf discs were infested with an […] population of mixed ages. After an incubation period of 7 days, samples were checked for mortality.

[6] = test system: Plutella xylostella; test: Plutella xylostella (diamond back moth) larval test on artificial diet; settings: same protocol, 200 ppm
Description: Plutella xylostella (Diamond Back Moth):
as §1, with “24-well” for “A 24-well”, “(7-12” for “(6-10”, “6” for “5”

[7] = 200 ppm sprayed on cotton leaf discs, L1 larvae, mortality, feeding behavior, growth regulation 3 DAT

Cc1cc(C2=NOC(c3cc(Cl)cc(Cl)c3)(C(F)(F)F)C2)ccc1/C(N)=N/O (centres unmarked) [Compound A1, 4-[5-(3,5-dichloro-phenyl)-5-trifluoromethyl-4,5-dihydro-isoxazol-3-yl]-N-hydroxy-2-methyl-benzamidine]
pest or weed control at 200 ppm [1, 7]: ≥ 80%

C#CCONC(=N)c1ccc(C2=NOC(c3cc(Cl)cc(Cl)c3)(C(F)(F)F)C2)cc1C (centres unmarked) [Compound A2, 4-[5-(3,5-dichloro-phenyl)-5-trifluoromethyl-4,5-dihydro-isoxazol-3-yl]-2-methyl-N-prop-2-ynyloxy-benzamidine]
pest or weed control at 200 ppm [1]: ≥ 80%

[H]/N=C(\NOC)c1ccc(C2=NOC(c3cc(Cl)cc(Cl)c3)(C(F)(F)F)C2)cc1C (centres unmarked) [Compound A3]
pest or weed control at 200 ppm [1, 7]: ≥ 80%

[H]/N=C(\NOCC)c1ccc(C2=NOC(c3cc(Cl)cc(Cl)c3)(C(F)(F)F)C2)cc1C (centres unmarked) [Compound A4]
pest or weed control at 200 ppm [1, 7]: ≥ 80%

[H]/N=C(\NOCC=C)c1ccc(C2=NOC(c3cc(Cl)cc(Cl)c3)(C(F)(F)F)C2)cc1C (centres unmarked) [Compound A5]
pest or weed control at 200 ppm [1, 7]: ≥ 80%

[H]/N=C(\NOCCCC)c1ccc(C2=NOC(c3cc(Cl)cc(Cl)c3)(C(F)(F)F)C2)cc1C (centres unmarked) [Compound A6]
pest or weed control at 200 ppm [1, 7]: ≥ 80%

CCOC(=O)/C=C/CONC(=N)c1ccc(C2=NOC(c3cc(Cl)cc(Cl)c3)(C(F)(F)F)C2)cc1C (centres unmarked) [Compound A13]
damage to the test organisms [2]: little or no damage
damage to the test organisms [3]: little or no damage
damage to the test organisms [4]: little or no damage
damage to the test organisms [1]: little or no damage
damage to the test organisms [5]: little or no damage
damage to the test organisms [6]: little or no damage

Cc1cc(C2=NOC(c3cc(Cl)cc(Cl)c3)(C(F)(F)F)C2)ccc1C(=N)NOCC1CCCCO1 (centres unmarked) [Compound A14]
damage to the test organisms [2]: little or no damage
damage to the test organisms [3]: little or no damage
damage to the test organisms [4]: little or no damage
damage to the test organisms [1]: little or no damage
damage to the test organisms [5]: little or no damage
damage to the test organisms [6]: little or no damage

Cc1cc(C2=NOC(c3cc(Cl)cc(Cl)c3)(C(F)(F)F)C2)ccc1C(=N)NOCc1cc(Cl)cc2c1OCOC2 (centres unmarked) [Compound A19]
damage to the test organisms [2]: little or no damage
damage to the test organisms [3]: little or no damage
damage to the test organisms [4]: little or no damage
damage to the test organisms [1]: little or no damage
damage to the test organisms [5]: little or no damage
damage to the test organisms [6]: little or no damage

Cc1cc(C2=NOC(c3cc(Cl)cc(Cl)c3)(C(F)(F)F)C2)ccc1C(=N)NOC(C)C(=O)Nc1ccccc1 (centres unmarked) [Compound A24]
damage to the test organisms [2]: little or no damage
damage to the test organisms [3]: little or no damage
damage to the test organisms [4]: little or no damage
damage to the test organisms [1]: little or no damage
damage to the test organisms [5]: little or no damage
damage to the test organisms [6]: little or no damage

[H]/N=C(\NOCC#CC)c1ccc(C2=NOC(c3cc(Cl)cc(Cl)c3)(C(F)(F)F)C2)cc1C (centres unmarked) [Compound A25]
pest or weed control at 200 ppm [1, 7]: ≥ 80%

Cc1cc(C2=NOC(c3cc(Cl)cc(Cl)c3)(C(F)(F)F)C2)ccc1C(=N)NOCC1CCCCC1 (centres unmarked) [Compound A26]
damage to the test organisms [2]: little or no damage
damage to the test organisms [3]: little or no damage
damage to the test organisms [4]: little or no damage
damage to the test organisms [1]: little or no damage
damage to the test organisms [5]: little or no damage
damage to the test organisms [6]: little or no damage

[H]/N=C(\NOCCC)c1ccc(C2=NOC(c3cc(Cl)cc(Cl)c3)(C(F)(F)F)C2)cc1C (centres unmarked) [Compound A27]
pest or weed control at 200 ppm [1, 7]: ≥ 80%

COc1ccc(C(=O)CONC(=N)c2ccc(C3=NOC(c4cc(Cl)cc(Cl)c4)(C(F)(F)F)C3)cc2C)cc1 (centres unmarked) [Compound A28]
damage to the test organisms [2]: little or no damage
damage to the test organisms [3]: little or no damage
damage to the test organisms [4]: little or no damage
damage to the test organisms [1]: little or no damage
damage to the test organisms [5]: little or no damage
damage to the test organisms [6]: little or no damage

Cc1cc(C2=NOC(c3cc(Cl)cc(Cl)c3)(C(F)(F)F)C2)ccc1C(=N)NOCc1sc(Cl)nc1C(F)(F)F (centres unmarked) [Compound A32]
damage to the test organisms [2]: little or no damage
damage to the test organisms [3]: little or no damage
damage to the test organisms [4]: little or no damage
damage to the test organisms [1]: little or no damage
damage to the test organisms [5]: little or no damage
damage to the test organisms [6]: little or no damage

CCOC(=O)c1ccc(CONC(=N)c2ccc(C3=NOC(c4cc(Cl)cc(Cl)c4)(C(F)(F)F)C3)cc2C)o1 (centres unmarked) [Compound A33]
damage to the test organisms [2]: little or no damage
damage to the test organisms [3]: little or no damage
damage to the test organisms [4]: little or no damage
damage to the test organisms [1]: little or no damage
damage to the test organisms [5]: little or no damage
damage to the test organisms [6]: little or no damage
